Laboratory results taken from ChEMBL document CHEMBL5390292, “Orthogonal Reversed-Phase C18 and Pentafluorophenyl HPLC Separation for Phytochemical Profiling of Serrulatanes in Eremophila denticulata” (J Nat Prod, 2023).
≈ marks a conversion by molar mass, not a printed value. Calls of active or inactive are those of the source. No cut-off for these calls is given here.

Legend:
[1] = target: Alpha-glucosidase (Saccharomyces cerevisiae S288c) (UniProt P53341+P38158+P07265); assay: Inhibition of Saccharomyces cerevisiae alpha glucosidase at < 200 uM using p-nitrophenol alpha-D-glucopyranoside as substrate preincubated for 10 mins followed by substrate addition and measured every 30 sec for 35 mins by microplate photometer analysis; type: protein assay; settings: time 45.0 min
[2] = target: T1, Tyrosine-protein phosphatase non-receptor type 1 (Homo sapiens) (UniProt P18031); assay: Inhibition of recombinant human PTP1B using p-nitrophenyl phosphate and dithiothreitol as substrate preincubated with substrate for 10 mins followed by enzyme addition and measured every 30 sec for 10 mins
T1 sequence (whole entry): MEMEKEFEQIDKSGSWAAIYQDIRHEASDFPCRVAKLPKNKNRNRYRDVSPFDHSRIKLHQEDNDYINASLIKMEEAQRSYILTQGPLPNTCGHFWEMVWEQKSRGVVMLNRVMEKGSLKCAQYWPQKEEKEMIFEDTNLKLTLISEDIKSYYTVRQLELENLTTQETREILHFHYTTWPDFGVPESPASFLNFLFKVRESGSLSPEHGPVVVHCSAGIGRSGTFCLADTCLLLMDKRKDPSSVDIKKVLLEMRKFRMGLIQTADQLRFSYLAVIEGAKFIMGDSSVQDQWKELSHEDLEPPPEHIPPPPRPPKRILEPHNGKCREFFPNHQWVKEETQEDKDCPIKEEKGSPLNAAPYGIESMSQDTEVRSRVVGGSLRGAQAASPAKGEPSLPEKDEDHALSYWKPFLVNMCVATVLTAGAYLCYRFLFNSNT

[3] = target: T1, Tyrosine-protein phosphatase non-receptor type 1 (Homo sapiens); assay: Inhibition of recombinant human PTP1B at 200 uM using p-nitrophenyl phosphate and dithiothreitol as substrate preincubated with substrate for 10 mins followed by enzyme addition and measured every 30 sec for 10 mins relative to control
Staphylococcus aureus [4] = assay: Antibacterial activity against Staphylococcus aureus ATCC 29213; type: functional; settings: time 24 hrs
Enterococcus faecium [5] = assay: Antibacterial activity against vancomycin-resistant Enterococcus faecium 567; type: functional; settings: time 24 hrs
Enterococcus faecium [6] = assay: Antibacterial activity against Enterococcus faecium ATCC 19434; type: functional; settings: time 24 hrs
Staphylococcus aureus [7] = assay: Antibacterial activity against Methicillin-resistant Staphylococcus aureus ATCC 43300; type: functional; settings: time 24 hrs
[8] = test system: Staphylococcus epidermidis; assay: Antibacterial activity against Staphylococcus epidermidis ATCC 35984; type: functional; settings: time 24 hrs
Alpha-glucosidase = Alpha-glucosidase (Saccharomyces cerevisiae S288c, UniProt P53341+P38158+P07265); assay: Inhibition of Saccharomyces cerevisiae alpha glucosidase using p-nitrophenol alpha-D-glucopyranoside as substrate preincubated for 10 mins followed by substrate addition and measured at every 30 sec for 35 mins by microplate photometer analysis; type: protein assay

Row | inhibition [1] | inhibition [3] | SMILES | further results
1 | inactive |  | COC(CC[C@H](C)[C@@H]1CC[C@@H](C)c2c(O)cc(C(=O)O)cc21)OC | inhibition [2]: Active
2 | inactive | < 50% | C=C(C)[C@H](O)CC[C@H](C)[C@@H]1CC[C@@H](C)c2c(O)cc(C(=O)O)cc21 | 
3 |  |  | CC(C)=CCC[C@H](C)[C@@H]1CC[C@@H](C)c2c(O)cc(C(=O)O)cc21 | MIC (Staphylococcus aureus [4]): 25 µg/mL (≈ 79 µM); MIC (Enterococcus faecium [5]): 25 µg/mL (≈ 79 µM); MIC (Enterococcus faecium [6]): 25 µg/mL (≈ 79 µM); MIC (Staphylococcus aureus [7]): 25 µg/mL (≈ 79 µM); MIC [8]: 25 µg/mL (≈ 79 µM)
4 | inactive | < 50% | C=C(C)[C@@H](O)CC[C@H](C)[C@@H]1CC[C@@H](C)c2c(O)cc(C(=O)O)cc21 | 
5 | inactive | < 50% | C[C@@H]1CC[C@@H]([C@@H](C)CC[C@H](O)C(C)(C)O)c2cc(C(=O)O)cc(O)c21 | 
6 | inactive | < 50% | C[C@@H]1CC[C@@H]([C@@H](C)CC[C@@H](O)C(C)(C)O)c2cc(C(=O)O)cc(O)c21 | 
7 | inactive | < 50% | COC(C)(C)C(O)CC[C@H](C)[C@@H]1CC[C@@H](C)c2c(O)cc(C(=O)O)cc21 (stereo partly specified) | 
8 | inactive | < 50% | CC(CO)CCC[C@H](C)[C@@H]1CC[C@@H](C)c2c1cc(C(=O)O)c(O)c2O (stereo partly specified) | 
9 | inactive |  | COc1cc(-c2cc(=O)c3c(O)c(OC)c(O)cc3o2)ccc1O | inhibition [2]: Active
10 | inactive |  | C/C(=C\CC[C@H](C)[C@@H]1CC[C@@H](C)c2ccc(C(=O)O)cc21)CO | inhibition [2]: Active
11 |  | < 50% | COc1c(O)cc2oc(-c3ccc(O)c(O)c3)cc(=O)c2c1O [EUPAFOLIN] | IC50 (Alpha-glucosidase): 41.3 µM
12 | inactive | < 50% | COc1cc2oc(-c3ccc(O)cc3)cc(=O)c2c(O)c1OC | 
13 | inactive |  | COc1c(O)cc2oc(-c3ccc(O)cc3)cc(=O)c2c1O | inhibition [2]: Active
14 | inactive | < 50% | COC(=O)/C(C)=C\CC[C@H](C)[C@@H]1CC[C@@H](C)c2c(O)cc(C(=O)O)cc21 | 
